# Assay results: patent publication US20170362210A1, “ANTI-ESTROGENIC COMPOUNDS” (PFIZER INC., priority 2015, published 2017)
# Like-named read-outs stand apart in the source and are kept apart here. Marks after values point to notes of the source that are not given here.
# Columns and labels:
# [1] = tested on: estrogen-responsive reporter gene (ERE-tk109-Luc) in MCF-7 cells; assay: Inhibition of E2-induced transcription, ERE-tk109-Luc reporter gene in MCF-7 cells; type: cell-based, human; conditions: 100 pM 17β-estradiol (E2), 18-22 hours, read-out: IC50, inhibition of E2-induced transcription in breast cells
# Description: Representative compounds were tested for their inhibitory activity of estrogen according to the assay methods described in Hodges-Gallagher, L., Valentine, C. V., El Bader, S. and Kushner, P. J. (2007) “Histone Deacetylase Inhibitors Enhance the Efficacy of Hormonal Therapy Agents on Breast Cancer Cells and Blocks Anti-estrogen-Driven Uterine Cell Proliferation” Breast Cancer Res Treat, November; 105(3):297-309. Specifically, an estrogen-responsive reporter gene (ERE-tk109-Luc) was transiently transfected into MCF-7 cells and treated with anti-estrogens in triplicate in the presence of 100 pM 17β-estradiol (E2) for 18-22 hours. Luciferase activity was normalized to activity of E2 alone and IC50's were calculated using the least squares fit method.
# [2] = tested on: MCF-7 breast cancer cells; assay: Inhibition of E2-stimulated proliferation of MCF-7 breast cancer cells; type: cell-based, human; conditions: 100 pM E2, hormone-depleted medium, 6-8 days
# Description: Proliferation of MCF-7 breast cancer cells was measured using a fluorescent DNA binding dye 6-8 days after treatment in triplicate with representative compounds in the presence of 100 pM E2 in hormone-depleted medium. IC50's were calculated from individual experiments as in Example 25.
# ERα = target: T1, ERα (Homo sapiens, UniProt P03372); assay: ERα expression in MCF-7 cell lysates (immunoblot); type: cell-based; conditions: MCF-7 cells, 100 nM compound, serum-free medium, 24 hours, immunoblot band intensity
# T1 construct: ERα expression was detected in MCF-7 cell lysates treated with 100 nM antiestrogens in serum-free medium for 24 hours; endogenous in cells; host or cells: MCF-7
# T1 sequence (P03372 1-595): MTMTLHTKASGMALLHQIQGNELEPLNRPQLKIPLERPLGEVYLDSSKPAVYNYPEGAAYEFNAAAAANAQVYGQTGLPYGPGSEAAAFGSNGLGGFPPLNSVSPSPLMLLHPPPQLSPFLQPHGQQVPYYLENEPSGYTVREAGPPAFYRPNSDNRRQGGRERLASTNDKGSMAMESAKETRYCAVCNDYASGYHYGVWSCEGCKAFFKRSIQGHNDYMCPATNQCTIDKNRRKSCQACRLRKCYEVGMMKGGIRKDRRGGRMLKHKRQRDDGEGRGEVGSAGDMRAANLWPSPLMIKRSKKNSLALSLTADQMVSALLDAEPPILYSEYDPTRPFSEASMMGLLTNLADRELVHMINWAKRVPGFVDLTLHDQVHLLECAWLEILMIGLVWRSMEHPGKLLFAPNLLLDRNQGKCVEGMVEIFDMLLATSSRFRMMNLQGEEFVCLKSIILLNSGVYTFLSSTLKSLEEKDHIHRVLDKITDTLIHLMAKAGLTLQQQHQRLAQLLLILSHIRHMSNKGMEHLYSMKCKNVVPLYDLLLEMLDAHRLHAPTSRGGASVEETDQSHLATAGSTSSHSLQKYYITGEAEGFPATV
# Description: ERα expression was detected in MCF-7 cell lysates treated with 100 nM antiestrogens in serum-free medium for 24 hours and immunoblotted with an antibody specific to ERα.
# Band intensity was normalized relative to vehicle for each individual experiment and listed in Table 3 (Relative change ERα levels (% vehicle)).
# [3] = tested on: AP activity in ECC-1 cells; assay: Alkaline phosphatase (AP) assay in ECC-1 uterine cells, induction of AP activity; type: cell-based, human; conditions: 3 days, normalized to 500 pM E2, maximum activity observed regardless of dose
# Description: (§1) Method for performing the alkaline phosphatase (AP) assay. ECC-1 cells (American Type Culture Collection, Manassas, Va.) were maintained in RPMI medium plus 10% fetal bovine serum at 37° C. At the beginning of the assay trypsinized cells were resuspended in RPMI medium plus 5% charcoal dextran stripped serum (CDSS, (Hyclone, Logan, Utah)) and plated at a density of 25-50 k cells per well into a 96-well plate for at least 6 hours. Representative compounds were diluted in serum-free medium and added 1:1 to plated cells in replicate wells (2.5% CDSS final). Plates were incubated for 3 days at 37° C. and subsequently frozen at −80° C. to lyse cells after removing the medium. Thawed plates were incubated with a chromogenic substrate of AP, p-nitrophenyl phosphate (Invitrogen, Grand Island, N.Y.), for 40 minutes at 40° C. Absorbances were read at 405 nm using a plate spectrophotometer. AP activity was normalized to 500 pM 17β-estradiol (E2), reported as the maximum activity observed for each individual experiment, regardless of dose.
# [4] = tested on: AP activity in ECC-1 cells; assay: Alkaline phosphatase (AP) assay in ECC-1 cells co-treated with 500 pM E2; type: cell-based, human; conditions: 3 days
# Description: as §1
# AP activity was assayed as in Example 28 but cells were co-treated with 500 pM E2.
# [5] = Homo sapiens, MCF7, MCF-7 cells
Compound,IC50 ([1]; MCF-7 cells) [nM],IC50 ([2]; MCF-7 cells) [nM],Relative change ERα levels (% vehicle) (ERα) [% veh],"IC50 [1, 5] [nM]","IC50 [2, 5] [nM]",Induction of AP activity in uterine cells (% E2) [3],"AP activity (% E2), cells co-treated with 500 pM E2 [4] [% E2]"
"CCCN1CC(Cc2ccc(C3Oc4cc(O)ccc4C(C)=C3c3ccc(O)cc3)cc2F)C1 (single isomer, unassigned) [Compound 113, 2-(3-fluoro-4-((1-propylazetidin-3-yl)methyl)phenyl)-3-(4-hydroxyphenyl)-4-methyl-2H-chromen-7-ol]",13,24,38,–,–,17 % E2,15
"CCCN1CC(Oc2ccc(C3Oc4cc(O)ccc4C(C)=C3c3ccc(O)cc3)cc2F)C1 (single isomer, unassigned) [Compound 109, 2-(3-fluoro-4-((1-propylazetidin-3-yl)oxy)phenyl)-3-(4-hydroxyphenyl)-4-methyl-2H-chromen-7-ol]",109,40,–,–,–,18 % E2,42
"CCCN1CC(Oc2ccc(C3Oc4cc(O)ccc4C(C)=C3c3ccccc3C(C)C)cc2)C1 (stereo not drawn) [Compound 119, 3-(2-isopropylphenyl)-4-methyl-2-(4-((1-propylazetidin-3-yl)oxy)phenyl)-2H-chromen-7-ol]",–,–,36,15,33,44 % E2,18
"CCCN1CC(Cc2ccc(C3Oc4cc(O)ccc4C(C)=C3c3ccc(O)cc3)cc2)C1 (single isomer, unassigned) [Compound 103, 3-(4-hydroxyphenyl)-4-methyl-2-(4-((1-propylazetidin-3-yl)methyl)phenyl)-2H-chromen-7-ol]",27,59,55,–,–,23 % E2,36
"CCCN1CC(Oc2ccc(C3Oc4cc(O)ccc4C(C)=C3c3ccc(F)cc3Cl)cc2)C1 (stereo not drawn) [Compound 116, 3-(2-chloro-4-fluorophenyl)-4-methyl-2-(4-((1-propylazetidin-3-yl)oxy)phenyl)-2H-chromen-7-ol]",–,–,–,5,5,9 % E2,24
"CC1=C(c2ccc(O)cc2)C(c2ccc(OC3CN(CCC(F)(F)F)C3)cc2)Oc2cc(O)ccc21 (single isomer, unassigned) [Compound 111, 3-(4-hydroxyphenyl)-4-methyl-2-(4-((1-(3,3,3-trifluoropropyl)azetidin-3-yl)oxy)phenyl)-2H-chromen-7-ol]",165,> 300,82,–,–,32 % E2,61
"CCCN1CC(Oc2ccc(C3Oc4cc(O)ccc4C(C)=C3c3ccc(O)cc3)cc2)C1 (single isomer, unassigned) [Compound 106, 3-(4-hydroxyphenyl)-4-methyl-2-(4-((1-propylazetidin-3-yl)oxy)phenyl)-2H-chromen-7-ol]",54,114,53,–,–,17 % E2,44
"CCCN1CC(Oc2ccc(C3Oc4cc(O)ccc4C(C)=C3c3ccc(O)cc3)cc2F)C1 (stereo not drawn) [Compound 107, 2-(3-fluoro-4-((1-propylazetidin-3-yl)oxy)phenyl)-3-(4-hydroxyphenyl)-4-methyl-2H-chromen-7-ol]",–,–,–,5,13,3 % E2,4
"CCCN1CC(Oc2ccc(C3Oc4cc(O)ccc4C(C)=C3c3ccc(O)cc3)cc2F)C1 (single isomer, unassigned) [Compound 108, 2-(3-fluoro-4-((1-propylazetidin-3-yl)oxy)phenyl)-3-(4-hydroxyphenyl)-4-methyl-2H-chromen-7-ol]",1,9,–,–,–,3 % E2,4
"CCCN1CC(Cc2ccc(C3Oc4cc(O)ccc4C(C)=C3c3ccc(O)cc3)cc2F)C1 (single isomer, unassigned) [Compound 112, 2-(3-fluoro-4-((1-propylazetidin-3-yl)methyl)phenyl)-3-(4-hydroxyphenyl)-4-methyl-2H-chromen-7-ol]",2,7,35,–,–,5* % E2,4

# More lines, main results first:
IC50 ([1]; MCF-7 cells) [nM],IC50 ([2]; MCF-7 cells) [nM],Relative change ERα levels (% vehicle) (ERα) [% veh],"IC50 [1, 5] [nM]","IC50 [2, 5] [nM]",Compound,Induction of AP activity in uterine cells (% E2) [3],"AP activity (% E2), cells co-treated with 500 pM E2 [4] [% E2]"
–,–,61,8,10,"CCCN1CC(Oc2ccc(C3Oc4cc(O)ccc4C(C)=C3c3ccccc3Cl)cc2)C1 (stereo not drawn) [Compound 120, 3-(2-chlorophenyl)-4-methyl-2-(4-((1-propylazetidin-3-yl)oxy)phenyl)-2H-chromen-7-ol]",12 % E2,14
4,33,45,–,–,"CCCN1CC(Oc2ccc(C3Oc4cc(O)ccc4C(C)=C3c3ccccc3)cc2)C1 (single isomer, unassigned) [Compound 117, 4-methyl-3-phenyl-2-(4-((1-propylazetidin-3-yl)oxy)phenyl)-2H-chromen-7-ol]",16 % E2,8
–,–,44,2,6,"CCCN1CC(Oc2ccc(C3Oc4cc(O)ccc4C(C)=C3c3ccc(O)cc3)cc2)C1 (stereo not drawn) [Compound 104, 3-(4-hydroxyphenyl)-4-methyl-2-(4-((1-propylazetidin-3-yl)oxy)phenyl)-2H-chromen-7-ol]",5 % E2,4
–,–,–,10,15,"CCCN1CC(Oc2ccc(C3Oc4cc(O)ccc4C(C)=C3c3ccc(F)cc3)cc2)C1 (stereo not drawn) [Compound 115, 3-(4-fluorophenyl)-4-methyl-2-(4-((1-propylazetidin-3-yl)oxy)phenyl)-2H-chromen-7-ol]",20 % E2,42
–,–,–,5,14,"CCCN1CC(Oc2ccc(C3Oc4cc(O)ccc4C(C)=C3c3ccccc3)cc2)C1 (stereo not drawn) [Compound 114, 4-methyl-3-phenyl-2-(4-((1-propylazetidin-3-yl)oxy)phenyl)-2H-chromen-7-ol]",15 % E2,23
